# Assay results taken from US4143133A, “Claudogenic-interceptive nonapeptides” (American Home Products Corporation, priority 1977, dated 1979).
# Key:
# [1] = tested on: Proestrous female Sprague-Dawley rats; test: Ovulation induction in Nembutal-treated proestrous rats; type: in vivo, rat; settings: for Dose giving ovulation inducing activity in 100 percent of the rats: via the jugular vein, Nembutal 50 mg/kg i.p.
# Procedure: The ovulation-induction properties of the nonapeptides of this invention was determined as follows:
# Proestrous female Sprague-Dawley rats were injected intraperitoneally with a hypnotic dose of Nembutal® (50 mg/kg) at 1:30 P.M. Between 1:40 and 1:50 P.M. the rats received the test material via the jugular vein. The following morning the animals were sacraficed and the fallopian tubes examined for ova under a dissecting microscope. […] Thus, in its ovulation induction, the preferred compound of this invention, [D-2-(cyclohexyl)Gly^6, Pro-NHC2 H5^9 ]LHRH is about 10 times as active as [D-Ala^6, Pro-NHC2 H5^9 ]LH-RH and 30 times as active as LH-RH.
# [2] = tested on: Mature, female, Sprague-Dawley rats; test: Anti-gravidity (claudogenic/interceptive) test in mated rats; type: in vivo; settings: rat; for Claudogen (D 1-7), Minimal Effective Dose (100% effect): days 1-7 of pregnancy; for Interceptive (D 7-12), Minimal Effective Dose (100% effect): days 7-12 of pregnancy
# [3] = tested on: Proestrous female Sprague-Dawley rats; test: Ovulation induction in Nembutal-treated proestrous rats; type: in vivo; settings: P.O.; rat
# [4] = cited from earlier work
# LH secretion = settings: cited from earlier work
compound,measurement,setting,value
"CCNC(=O)[C@@H]1CCCN1C(=O)[C@H](CCCNC(=N)N)NC(=O)[C@H](CC(C)C)NC(=O)[C@H](NC(=O)[C@H](Cc1ccc(O)cc1)NC(=O)[C@H](CO)NC(=O)[C@H](Cc1c[nH]c2ccccc12)NC(=O)[C@H](Cc1c[nH]cn1)NC(=O)[C@@H]1CCC(=O)N1)C1CCCCC1 [Example 5, L-pyroglutamyl-L-histidyl-L-tryptophyl-L-seryl-L-tyrosyl-D-2-(cyclohexyl)glycyl-L-leucyl-L-arginyl-L-prolinethylamide]","Ovulation induction, Minimal Effective Dose (100% effect)","[1]; I.V., rat",0.10 μ/rat
same,Ovulation induction activity relative to LH-RH,[1]; rat,~30 times
same,"Ovulation induction activity relative to [D-Ala^6, Pro-NHC2 H5^9 ]LH-RH",[1]; rat,about 10 times
same,Dose giving ovulation inducing activity in 100 percent of the rats,[1],0.1 μg per rat
same,"Claudogen (D 1-7), Minimal Effective Dose (100% effect)",[2]; P.O.,200 μ/rat
same,"Interceptive (D 7-12), Minimal Effective Dose (100% effect)",[2]; P.O.,> 1000 μ/rat
same,"Claudogen (D 1-7), Minimal Effective Dose (100% effect)",[2]; S.C.,~ 1.0 μ/rat
same,"Interceptive (D 7-12), Minimal Effective Dose (100% effect)",[2]; S.C.,~ 10 μ/rat
same,"Ovulation induction, Minimal Effective Dose (100% effect)",[3],~ 10 μ/rat
CCNC(=O)[C@@H]1CCCN1C(=O)[C@H](CCCNC(=N)N)NC(=O)[C@H](CC(C)C)N(C)C(=O)[C@H](NC(=O)[C@H](Cc1ccc(O)cc1)NC(=O)[C@H](CO)NC(=O)[C@H](Cc1c[nH]c2ccccc12)NC(=O)[C@H](Cc1c[nH]cn1)NC(=O)[C@@H]1CCC(=O)N1)C1CCCCC1 [Example 6],"Ovulation induction, Minimal Effective Dose (100% effect)","[1]; i.v., rat",1.0 μg/rat
same,Dose giving ovulation inducing activity in 100 percent of the rats,[1],1.0 μg per rat
same,"Claudogen (D 1-7), Minimal Effective Dose (100% effect)",[2]; P.O.,> 1000 μg/rat
same,"Interceptive (D 7-12), Minimal Effective Dose (100% effect)",[2]; P.O.,> 1000 μg/rat
same,"Claudogen (D 1-7), Minimal Effective Dose (100% effect)",[2]; S.C.,10 μg/rat
same,"Interceptive (D 7-12), Minimal Effective Dose (100% effect)",[2]; S.C.,~ 10 μg/rat
same,"Ovulation induction, Minimal Effective Dose (100% effect)",[3],> 10 μg/rat
D-Ala^6 -LRH,Potency relative to LH-RH,[4]; Monahan et al. 1973,more potent than LH-RH
"D-Ala^6, (N^α -Me)Leu^7 LH-RH","Potency in stimulating the secretion of LH, percent of LH-RH's potency",LH secretion; Ling et al. 1975,560%
"LH-RH (QHWSYGLRPG; Gonadoliberin-1; UniProt P01148 24-33, looked up) [native hormone used as comparison in ovulation induction, reference compound]",Dose giving ovulation inducing activity in 100 percent of the rats,[1],about 3 μg per rat
"[D-Ala^6, des-Gly-NH2^10, Proethylamide]LH-RH [reference compound]",Dose giving ovulation inducing activity in 100 percent of the rats,[1],about 1 μg per rat
same,Potency in stimulating LH secretion relative to D-Ala^6 -LH-RH,LH secretion; Coy et al. 1974,about twice
des-Gly^10 -Pro-NHC2 H5 -LH-RH,Activity relative to LH-RH,[4]; Fujino et al. 1972,three to five times as active as LH-RH
